The values that follow come from patent US9630989B2, “Dipeptide analogs for treating conditions associated with amyloid fibril formation” (Ramot at Tel-Aviv University Ltd., priority 2010, dated 2017).

Data set [1] can be described thus: Metabolic stability in rat liver microsomes. The conditions noted are these: % of compound remaining after 30 minutes. Type of data set: in vitro ADME. How it is done:
(§1) The metabolic stability of exemplary peptide analogs as disclosed herein was tested in Human and Rat liver microsomes (HLM and RLM, respectively). The obtained data is presented in Table 5 below, as % of compound remaining after 30 minutes). All of the peptides were found sufficiently stable.

The next data set has as its system P-gp (human PGP). Put plainly: Membrane permeability in MDCKII/PGP cells. Type of data set: in vitro ADME. The conditions noted are these: dog, MDCK-MDR1; MDCKII cells transfected with human PGP; read-out: Permeability MDCKII/PGP AI (asymmetry index). Here is the method: (§2) Exemplary peptide analogs as disclosed herein were tested for membrane permeability in MDCKII cells transfected with human PGP, for evaluating intestinal absorption. The data obtained in presented in Table 5 below, where A-B is the apical-basolateral flux and AI is the asymmetry index.

Another data set concerns human P-gp (PGP). In words: Membrane permeability in MDCKII/PGP cells. Type of data set: in vitro ADME. The settings on record: dog, MDCK-MDR1; MDCKII cells transfected with human PGP; read-out: Permeability MDCKII/PGP A-B (apical-basolateral flux). Here is the method:
as §2

Data set [2] can be described thus: Aqueous solubility at pH 7.4. Type of data set: physicochemical. The settings on record: aqueous medium at pH 7.4, aqueous buffer. Here is the method:
The aqueous solubility of exemplary dipeptide analogs as disclosed herein was tested at pH 7.4.

A short description of data set [3]: Metabolic stability in human liver microsomes. Type of data set: in vitro ADME. The conditions noted are these: % of compound remaining after 30 minutes. Here is the method:
as §1

A further data set addresses T1, Aβ1-42 (Homo sapiens, UniProt P05067).
T1 construct: β-amyloid polypeptides (Aβ 1-42, >98% pure); purchased Bachem (Bubendorf, Switzerland); host or cells: chemical synthesis
Put plainly: Aβ1-42 globulomer generation / oligomer formation (Hillen protocol), gel staining and western blot. Type of data set: biochemical. How it is done:
Aβ1-42 intermediates and globulomers were produced according to Barghorn et al. [J. Neurochem. 2005 November; 95(3):834-47]. Synthetic lyophilized β-amyloid polypeptides (Aβ 1-42, >98% pure) were purchased from Bachem (Bubendorf, Switzerland). To avoid pre-aggregation, synthetic lyophilized Aβ1-42 was pretreated with HFIP. Aβ1-42 was dissolved in 100% HFIP, sonicated for 20 seconds and incubated for 2 hours at 37° C. under shaking at 100 RPM. After evaporation in a speedVac, Aβ1-42 was re-suspended in DMSO, with or without the tested peptide, to 5 mM and diluted with 20 mM NaH2PO4, 140 mM NaCl, pH 7.4, to a final concentration of 400 μM, and 1/10 volume 2% SDS (final concentration of 0.2%). The Aβ globulomers were generated by further dilution with two volumes of H2O and incubation for 18 hours or more.
To evaluate the effect of D-Trp-Aib analogs on the transformation of the Aβ1-42 into the toxic assemblies, the tested peptides were incubated with Aβ1-42 at increasing molar ratios, and the reaction mixtures were resolved on SDS-PAGE followed by western blot analysis by a specific anti Aβ antibody (6E10) (SIGNET).

Another data set has as its target T2, Aβ monomers (Homo sapiens, UniProt P05067).
T2 construct: Aβ monomers were covalently coupled to one flow cell of CM7 sensor chips
Put plainly: SPR binding assay (BIACORE X100). The conditions noted are these: immobilized Aβ monomers, 25° C., steady-state; mean ± SD; read-out: SPR binding IC50 [nM] +/− SD (repeats). How it is done:
Surface Plasmon Resonance (SPR) studies were performed using a BIACORE X100 biosensor instrument (GE Lifesciences, Uppsala, Sweden), equipped with two flow cells on a sensor chip. Aβ monomers were covalently coupled to one flow cell of CM7 sensor chips (GE Lifesciences, Uppsala, Sweden) via primary amines using the Amine Coupling Kit (GE Lifesciences, Uppsala, Sweden). As a control, ethanolamine was immobilized on the reference channel. […] One RU represents about 1 pg/mm^2 of the analytes on the surface matrix of the sensor chip. […] The stock solutions were diluted 1:1000 in HBS-EP buffer which contains 0.01M HEPES, pH7.4, 0.15M NaCl, 3 mM EDTA, and 0.005% of surfactant P20. HBS-EP+0.1% (v/v) DMSO was used as assay running buffer. The test solutions were injected over the sensor chip in concentrations ranging from 0.1 nM to 300 nM at a flow rate of 10 μl/min for 180 seconds at 25° C. Concentrations were tested in duplicate. The RUs elicited by the compound injected into the ethanolamine control flow cell was set as reference response and subtracted from the RUs elicited by the same compound injected to the Aβ saturated flow cell. The relationships between each RU obtained at the steady state of binding (plateau of the binding curve) and each concentration of the compound were plotted. After the analyte injection was stopped, HBS-EP buffer was flowed over the chip for 180 s to allow the bound analyte to dissociate from the immobilized Aβ and the dissociation curves were obtained. After the dissociation phase, regeneration solution (1M NaCl, 50 mM NaOH) was injected and flowed over the chip for 30 seconds to remove the residual bound analytes from the immobilized Aβ. BIACORE X100 control software Ver 1.1 was used to record the binding curves and BIACORE X100 evaluation software Ver 1.1 to analyze the curves (plot each RU at the steady state vs. concentration of analyte, fit the plot, determine KD values). The dissociation equilibrium constant KD of the analyte to the immobilized Aβ was determined from the steady-state levels estimating the maximum RU Rmax and calculating the KD as the concentration of the compound that elicited one-half of the Rmax.

The structures appear in SMILES notation. Values after ≈ are worked out from the molar mass of the structure shown. Non-standard residues stand in square brackets, D forms with d. Residues, ends and D or L forms follow the SMILES beside them. ξ: configuration not given here. *: point of attachment. dNMeW = CN[C@H](Cc1c[nH]c2ccccc12)C(=O)O; ξNMeW = CNC(Cc1c[nH]c2ccccc12)C(=O)O; ξW = NC(Cc1c[nH]c2ccccc12)C(=O)O; NMeAib = CNC(C)(C)C(=O)O; Boc = CC(C)(C)OC(=O)*; Aib = CC(C)(N)C(=O)O; OtBu = CC(C)(C)O*

T2 sequence (P05067 672-713 limits assumed): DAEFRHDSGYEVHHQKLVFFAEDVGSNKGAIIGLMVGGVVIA
T1 sequence (P05067 672-713 limits assumed): as above

Turning to `CC(=O)NC(Cc1c[nH]c2ccccc12)C(=O)NC(C)(C)C(=O)O` (stereo not drawn), in data set [1], the “Metabolic Stability (%) RLM” value is above 100%. Besides, the efflux ratio with P-gp (human PGP) turned out to be 0.7. The Papp A→B with human P-gp (PGP) came out at 1.5 ×10⁻⁶ cm/s. Besides, the solubility in data set [2] was found to be 253 µM (≈ 83.8 µg/mL). In data set [3], the “Metabolic Stability (%) HLM” value is 90%.

In the case of `CC(C)(NC(=O)C(Cc1c[nH]c2ccccc12)NC=O)C(=O)O` (stereo not drawn), the “Metabolic Stability (%) RLM” value in data set [1] was above 100%. In addition, in the data set on P-gp (human PGP), the efflux ratio stood at 0.7. The Papp A→B with human P-gp (PGP) was 1.3 ×10⁻⁶ cm/s. Besides, in data set [2], the solubility is 222 µM (≈ 70.5 µg/mL). The “Metabolic Stability (%) HLM” value in data set [3] is 87%.

`CC(=O)N(C)C(Cc1c[nH]c2ccccc12)C(=O)NC(C)(C)C(=O)O` (stereo not drawn) (Ac-[ξNMeW]-[Aib]-OH): the efflux ratio in the data set with P-gp (human PGP) stood at 0.8. In addition, the Papp A→B with human P-gp (PGP) stood at 1.3 ×10⁻⁶ cm/s. Besides, the solubility in data set [2] is above 278 µM.

As to `CC(C)(NC(=O)C(N)Cc1c[nH]c2ccccc12)C(N)=O` (stereo not drawn) (H-[ξW]-[Aib]-NH2), the “Metabolic Stability (%) RLM” value in data set [1] was above 100%. The Papp A→B with human P-gp (PGP) stood at 1.6 ×10⁻⁶ cm/s. This compound displayed a solubility in data set [2] above 355 µM. Also, in data set [3], the “Metabolic Stability (%) HLM” value is above 100%.

Regarding `CC(C)(C)OC(=O)C(C)(C)NC(=O)[C@H](N)Cc1c[nH]c2ccccc12` [Compound 1] (H-[dW]-[Aib]-OtBu), the “inhibition of Aβ1-42 globulomer formation” value at Aβ1-42 (10:1 (inhibitor:Aβ peptide) molar ratio) and on Aβ1-42 (20:1 (inhibitor:Aβ peptide) molar ratio) was “inhibit” each time.

`CC(=O)N[C@H](Cc1c[nH]c2ccccc12)C(=O)NC(C)(C)C(=O)O` [Compound A]: the IC50 at Aβ monomers stood at 2.8 ± 0.8 nM.

As to `CC(=O)N(C)[C@H](Cc1c[nH]c2ccccc12)C(=O)NC(C)(C)C(=O)O` [Compound B] (Ac-[dNMeW]-[Aib]-OH), the IC50 on Aβ monomers was found to be 56.4 ± 32.7 nM.

Regarding `CC(C)(NC(=O)[C@@H](Cc1c[nH]c2ccccc12)NC=O)C(=O)O` [Compound C], the IC50 on Aβ monomers worked out at 3.9 ± 0.1 nM.

Take `CNC(=O)C(C)(C)NC(=O)[C@H](N)Cc1c[nH]c2ccccc12` [Compound E] (H-[dW]-[Aib]-NHMe): at Aβ monomers, the IC50 worked out at 40.2 ± 3.4 nM.

Regarding `CN(C)C(=O)C(C)(C)NC(=O)[C@H](N)Cc1c[nH]c2ccccc12` [Compound F] (H-[dW]-[Aib]-NMe2), the IC50 at Aβ monomers worked out at 4.2 nM.

For `CN(C(=O)[C@@H](Cc1c[nH]c2ccccc12)NC(=O)OC(C)(C)C)C(C)(C)C(=O)O` [Compound Q] (Boc-[dW]-[NMeAib]-OH), the IC50 at Aβ monomers was 3.8 ± 1.4 nM.

As for `CC(=O)N[C@H](Cc1c[nH]c2ccccc12)C(=O)N(C)C(C)(C)C(=O)O` [Compound R] (Ac-[dW]-[NMeAib]-OH), the IC50 at Aβ monomers was 4.3 ± 1 nM.

As for `CC(C)(C)OC(=O)N/C(=C\c1c[nH]c2ccccc12)C(=O)NC(C)(C)C(N)=O` [Compound T], the IC50 at Aβ monomers was 1.5 ± 0.6 nM.

As to `CC(C)(C)OC(=O)N/C(=C\c1c[nH]c2ccccc12)C(=O)NC(C)(C)C(=O)O` [Compound U], the IC50 on Aβ monomers stood at 6.2 ± 1.9 nM.

Regarding `CNC(=O)C(C)(C)N(C)C(=O)[C@@H](Cc1c[nH]c2ccccc12)NC(C)=O` [Compound V] (Ac-[dW]-[NMeAib]-NHMe), the IC50 at Aβ monomers is 0.5 nM.

With `CC(C)(C)OC(=O)N/C(=C\c1c[nH]c2ccccc12)C(=O)NC(C)(C)C(=O)O` [drawing 63], in data set [1], the “Metabolic Stability (%) RLM” value is reported as 81%. The efflux ratio in the data set with P-gp (human PGP) amounted to 1.2. In addition, in the data set on human P-gp (PGP), the Papp A→B was found to be 2.1 ×10⁻⁶ cm/s. The solubility in data set [2] is above 280 µM. Moreover, in data set [3], the “Metabolic Stability (%) HLM” value came to 95%.

`CC(C)(C)OC(=O)N/C(=C\c1c[nH]c2ccccc12)C(=O)NC(C)(C)C(N)=O` [drawing 64]: the efflux ratio in the data set with P-gp (human PGP) was 1.6. For the same compound, the Papp A→B with human P-gp (PGP) came out at 10.6 ×10⁻⁶ cm/s. The solubility in data set [2] was above 282 µM.

Turning to `CN(C(=O)[C@@H](Cc1c[nH]c2ccccc12)NC(=O)OC(C)(C)C)C(C)(C)C(=O)O` [drawing 65] (Boc-[dW]-[NMeAib]-OH), in data set [1], the “Metabolic Stability (%) RLM” value is reported as 87%. In the data set on P-gp (human PGP), the efflux ratio was 0.3. In the data set with human P-gp (PGP), the Papp A→B came to 1.4 ×10⁻⁶ cm/s. The same compound showed a solubility in data set [2] of 239 µM (≈ 96.4 µg/mL). The “Metabolic Stability (%) HLM” value in data set [3] turned out to be 100%.

For the compound `CC(=O)N[C@H](Cc1c[nH]c2ccccc12)C(=O)N(C)C(C)(C)C(=O)O` [drawing 66] (Ac-[dW]-[NMeAib]-OH), the “Metabolic Stability (%) RLM” value in data set [1] is recorded as above 100%. For the same compound, in the data set on P-gp (human PGP), the efflux ratio was 1. The Papp A→B in the data set with human P-gp (PGP) is 0.7 ×10⁻⁶ cm/s. In addition, the solubility in data set [2] was above 286 µM. For the same compound, the “Metabolic Stability (%) HLM” value in data set [3] worked out at 88%.

For `CC(C)(NC(=O)C(N)Cc1c[nH]c2ccccc12)C(=O)O` (stereo not drawn) [reference compound], in data set [1], the “Metabolic Stability (%) RLM” value is recorded as above 100%. In addition, in the data set with human P-gp (PGP), the Papp A→B was 1.2 ×10⁻⁶ cm/s. In data set [2], this compound came in with a solubility above 350 µM. In addition, in data set [3], the “Metabolic Stability (%) HLM” value is listed as above 100%.
